In brackets after ≈: the same amount, converted by molar mass. Several values for one entry are separate records, joined by “and”; a condition that tells them apart may be missing. Identical values can stand only once. Like-named read-outs stand apart in the source and are kept apart here.
Columns and labels:
NSD3 = target: T1, NSD3 (Homo sapiens, UniProt Q9BZ95); experiment: Radioisotope-based methyltransferase assay (selectivity); type: biochemical; conditions: read-out: IC50
T1 construct: purchased Reaction Biology
T1 sequence (Q9BZ95 1-1437): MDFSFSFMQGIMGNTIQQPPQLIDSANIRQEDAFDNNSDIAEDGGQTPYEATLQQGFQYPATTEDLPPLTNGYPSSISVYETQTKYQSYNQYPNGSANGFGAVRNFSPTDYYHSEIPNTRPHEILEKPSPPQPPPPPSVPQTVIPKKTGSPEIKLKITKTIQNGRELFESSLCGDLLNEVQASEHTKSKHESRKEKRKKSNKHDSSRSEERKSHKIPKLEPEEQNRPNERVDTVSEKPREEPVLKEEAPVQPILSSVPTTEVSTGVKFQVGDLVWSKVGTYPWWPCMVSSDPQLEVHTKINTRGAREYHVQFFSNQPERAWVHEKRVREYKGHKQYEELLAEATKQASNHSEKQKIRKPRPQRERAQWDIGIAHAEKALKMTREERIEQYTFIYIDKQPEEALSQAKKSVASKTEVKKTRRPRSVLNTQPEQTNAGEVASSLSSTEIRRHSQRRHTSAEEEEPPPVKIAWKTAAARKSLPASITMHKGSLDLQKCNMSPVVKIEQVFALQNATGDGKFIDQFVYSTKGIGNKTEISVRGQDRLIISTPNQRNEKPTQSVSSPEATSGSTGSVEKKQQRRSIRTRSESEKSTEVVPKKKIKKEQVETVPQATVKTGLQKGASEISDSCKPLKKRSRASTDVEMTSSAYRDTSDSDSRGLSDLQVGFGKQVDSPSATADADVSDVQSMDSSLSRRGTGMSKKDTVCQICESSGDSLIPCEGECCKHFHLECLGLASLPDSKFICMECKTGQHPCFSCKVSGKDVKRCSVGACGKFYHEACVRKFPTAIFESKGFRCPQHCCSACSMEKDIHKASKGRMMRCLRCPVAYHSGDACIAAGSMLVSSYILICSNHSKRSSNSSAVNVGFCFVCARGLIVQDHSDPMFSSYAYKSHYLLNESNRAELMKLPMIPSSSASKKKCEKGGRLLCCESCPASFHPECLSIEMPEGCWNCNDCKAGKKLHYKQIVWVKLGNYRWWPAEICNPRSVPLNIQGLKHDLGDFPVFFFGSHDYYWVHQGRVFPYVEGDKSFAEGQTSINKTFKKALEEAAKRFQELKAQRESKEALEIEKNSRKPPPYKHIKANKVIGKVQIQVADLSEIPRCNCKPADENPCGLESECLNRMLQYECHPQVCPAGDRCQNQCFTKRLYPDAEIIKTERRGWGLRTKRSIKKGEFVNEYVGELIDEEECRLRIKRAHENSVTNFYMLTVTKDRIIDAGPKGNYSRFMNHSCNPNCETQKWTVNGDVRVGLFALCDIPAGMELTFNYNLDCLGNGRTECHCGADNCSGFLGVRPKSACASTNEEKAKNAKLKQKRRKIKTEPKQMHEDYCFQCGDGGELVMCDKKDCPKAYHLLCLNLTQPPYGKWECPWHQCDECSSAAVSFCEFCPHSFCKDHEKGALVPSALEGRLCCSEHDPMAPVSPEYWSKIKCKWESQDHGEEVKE

EZH2 = EZH2 (Homo sapiens, UniProt Q15910); experiment: as above
PRMT6 = PRMT6 (Homo sapiens, UniProt Q96LA8)
Aqueous solubility = type: physicochemical; parameters: Solubility in PBS (pH = 7.4): unit: uM; conditions: for solubility at 1 h: phosphate buffer
Description: The direct UV kinetic solution method was performed in duplicate. A 10 mM DMSO solution of compound was added to a microtube containing aqueous pH 7.4 or pH 6.8 phosphate buffer solution (maximum concentration: 200 μM). The solution mixture was vigorously shaken at ambient temperature for 1 h. The precipitate was removed by centrifugal separation, and the UV absorbance of the supernatant and the standard solution prepared by the test compound for calibration were measured in duplicate using a 96-well UV plate reader, SPECTRA MAX190 (Molecular Devices).

PRMT8 = PRMT8 (Homo sapiens, UniProt Q9NR22); experiment: Radioisotope-based methyltransferase assay (selectivity)
NSD2 (E1099K) = NSD2 (E1099K) (Homo sapiens, UniProt O96028, E1099K)
[1] = Parallel artificial membrane permeability assay (PAMPA); type: in vitro ADME
Description: Parallel artificial membrane permeability measurements were performed in duplicate with a Corning Gentest Pre-coated PAMPA Plate System according to the standard protocol of Corning Incorporated Life Sciences (Tewksbury).

[2] = Liver microsomal stability assay, dog; type: in vitro ADME; conditions: for Metabolic stability, % remaining of RK-701: Dog
Description: (§1) [Human/Rat] Liver microsome analyses (human, rat) were performed in triplicate by the Sumika Chemical Analysis Service (SCAS) according to the standard protocols. […] [Dog/Monkey] Liver microsome analyses (dog, monkey) were performed in duplicate by RIKEN according to the same protocols as SCAS.

[3] = Liver microsomal stability assay, rat; type: in vitro ADME; conditions: for Metabolic stability, % remaining of RK-701: Rat
Description: as §1

NSD2 = NSD2 (Homo sapiens, UniProt O96028)
NSD2, sequence (O96028 whole entry): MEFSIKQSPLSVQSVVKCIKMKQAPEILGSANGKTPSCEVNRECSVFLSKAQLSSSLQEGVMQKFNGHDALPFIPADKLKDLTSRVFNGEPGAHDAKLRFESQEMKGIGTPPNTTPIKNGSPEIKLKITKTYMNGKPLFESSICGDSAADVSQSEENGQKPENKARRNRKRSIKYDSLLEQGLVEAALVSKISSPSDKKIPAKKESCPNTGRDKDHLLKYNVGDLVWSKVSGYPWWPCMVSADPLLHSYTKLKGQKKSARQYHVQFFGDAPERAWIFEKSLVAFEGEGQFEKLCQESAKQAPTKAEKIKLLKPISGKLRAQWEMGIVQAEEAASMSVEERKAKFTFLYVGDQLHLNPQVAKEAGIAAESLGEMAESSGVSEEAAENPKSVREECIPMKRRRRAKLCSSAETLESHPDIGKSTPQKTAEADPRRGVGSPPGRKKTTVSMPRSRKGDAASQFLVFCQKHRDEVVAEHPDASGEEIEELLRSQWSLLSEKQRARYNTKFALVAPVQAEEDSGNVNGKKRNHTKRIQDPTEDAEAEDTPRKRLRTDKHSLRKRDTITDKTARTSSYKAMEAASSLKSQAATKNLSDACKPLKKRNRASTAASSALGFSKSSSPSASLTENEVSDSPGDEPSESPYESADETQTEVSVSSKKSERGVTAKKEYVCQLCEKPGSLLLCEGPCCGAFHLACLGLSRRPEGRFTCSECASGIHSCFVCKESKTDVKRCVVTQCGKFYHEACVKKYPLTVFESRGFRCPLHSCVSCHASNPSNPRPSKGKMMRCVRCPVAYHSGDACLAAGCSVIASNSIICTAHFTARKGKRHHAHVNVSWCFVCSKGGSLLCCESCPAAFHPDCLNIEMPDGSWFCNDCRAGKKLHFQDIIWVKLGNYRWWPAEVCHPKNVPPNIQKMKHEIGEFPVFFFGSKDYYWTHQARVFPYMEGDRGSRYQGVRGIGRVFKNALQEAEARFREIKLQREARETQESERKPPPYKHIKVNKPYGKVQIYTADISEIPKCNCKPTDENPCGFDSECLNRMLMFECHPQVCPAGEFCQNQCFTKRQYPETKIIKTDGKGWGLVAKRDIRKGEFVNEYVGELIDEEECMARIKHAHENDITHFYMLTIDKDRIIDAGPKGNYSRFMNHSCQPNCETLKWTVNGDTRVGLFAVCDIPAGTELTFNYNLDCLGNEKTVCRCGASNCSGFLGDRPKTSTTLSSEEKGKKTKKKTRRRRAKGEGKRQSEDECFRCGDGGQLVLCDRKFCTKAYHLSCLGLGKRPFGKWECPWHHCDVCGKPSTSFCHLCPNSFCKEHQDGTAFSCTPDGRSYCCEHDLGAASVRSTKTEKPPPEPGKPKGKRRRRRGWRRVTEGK

NSD2 (E1099K), sequence (O96028 whole entry E1099K): as the sequence (O96028 whole entry) above, with E1099K counted along it
PRMT8, sequence (Q9NR22 whole entry): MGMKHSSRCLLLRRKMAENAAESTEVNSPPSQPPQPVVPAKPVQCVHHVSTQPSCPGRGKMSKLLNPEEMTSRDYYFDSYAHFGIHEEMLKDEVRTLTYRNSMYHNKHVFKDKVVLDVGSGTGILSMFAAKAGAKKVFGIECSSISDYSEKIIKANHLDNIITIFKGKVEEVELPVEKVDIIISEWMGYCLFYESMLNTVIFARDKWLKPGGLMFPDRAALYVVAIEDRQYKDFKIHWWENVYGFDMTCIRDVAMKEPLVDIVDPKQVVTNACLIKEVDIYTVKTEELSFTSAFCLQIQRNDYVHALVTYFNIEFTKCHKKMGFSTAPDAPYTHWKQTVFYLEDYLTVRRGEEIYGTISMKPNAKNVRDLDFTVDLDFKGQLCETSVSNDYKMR
PRMT6, sequence (Q96LA8 whole entry): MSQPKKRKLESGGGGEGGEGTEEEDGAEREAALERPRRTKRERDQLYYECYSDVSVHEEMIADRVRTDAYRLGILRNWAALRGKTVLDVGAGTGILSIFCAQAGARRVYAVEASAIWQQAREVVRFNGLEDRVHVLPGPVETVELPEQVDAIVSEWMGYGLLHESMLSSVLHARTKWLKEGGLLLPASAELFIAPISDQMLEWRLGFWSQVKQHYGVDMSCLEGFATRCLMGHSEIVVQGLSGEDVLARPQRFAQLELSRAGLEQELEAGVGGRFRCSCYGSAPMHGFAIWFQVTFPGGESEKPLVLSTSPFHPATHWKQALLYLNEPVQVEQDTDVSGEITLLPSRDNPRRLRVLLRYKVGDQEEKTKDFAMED
EZH2, sequence (Q15910 whole entry): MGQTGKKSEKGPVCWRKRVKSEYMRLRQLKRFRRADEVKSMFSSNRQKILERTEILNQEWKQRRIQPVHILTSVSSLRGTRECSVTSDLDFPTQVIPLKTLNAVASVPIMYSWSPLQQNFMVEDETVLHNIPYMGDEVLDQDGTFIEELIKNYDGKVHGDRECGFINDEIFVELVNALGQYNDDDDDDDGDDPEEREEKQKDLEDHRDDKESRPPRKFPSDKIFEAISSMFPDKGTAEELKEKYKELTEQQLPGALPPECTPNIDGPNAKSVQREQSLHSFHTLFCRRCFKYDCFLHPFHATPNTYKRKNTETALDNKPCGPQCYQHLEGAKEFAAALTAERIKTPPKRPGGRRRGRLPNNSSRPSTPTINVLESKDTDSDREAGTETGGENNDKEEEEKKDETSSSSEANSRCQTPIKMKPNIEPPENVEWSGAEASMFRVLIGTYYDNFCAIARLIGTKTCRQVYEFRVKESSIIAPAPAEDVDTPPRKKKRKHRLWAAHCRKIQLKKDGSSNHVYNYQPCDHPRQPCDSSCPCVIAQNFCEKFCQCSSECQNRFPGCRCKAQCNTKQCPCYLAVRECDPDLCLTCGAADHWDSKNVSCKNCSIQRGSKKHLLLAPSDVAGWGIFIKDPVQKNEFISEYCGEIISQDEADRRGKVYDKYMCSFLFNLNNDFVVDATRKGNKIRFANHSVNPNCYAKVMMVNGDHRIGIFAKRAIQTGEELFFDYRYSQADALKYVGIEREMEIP
EZH2, sequence (O75530 whole entry partner): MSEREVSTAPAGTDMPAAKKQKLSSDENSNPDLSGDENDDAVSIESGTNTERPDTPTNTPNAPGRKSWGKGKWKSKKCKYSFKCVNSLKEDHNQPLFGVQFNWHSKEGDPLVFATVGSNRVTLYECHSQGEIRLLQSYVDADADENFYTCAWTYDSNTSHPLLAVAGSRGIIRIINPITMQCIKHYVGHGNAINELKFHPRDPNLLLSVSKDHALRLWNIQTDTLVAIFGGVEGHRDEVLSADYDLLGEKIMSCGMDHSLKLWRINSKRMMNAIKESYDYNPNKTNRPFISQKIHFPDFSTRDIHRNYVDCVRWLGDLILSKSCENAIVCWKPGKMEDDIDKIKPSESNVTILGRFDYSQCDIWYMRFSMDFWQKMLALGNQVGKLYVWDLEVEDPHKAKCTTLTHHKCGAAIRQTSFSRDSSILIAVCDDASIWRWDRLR
EZH2, sequence (Q15022 whole entry partner): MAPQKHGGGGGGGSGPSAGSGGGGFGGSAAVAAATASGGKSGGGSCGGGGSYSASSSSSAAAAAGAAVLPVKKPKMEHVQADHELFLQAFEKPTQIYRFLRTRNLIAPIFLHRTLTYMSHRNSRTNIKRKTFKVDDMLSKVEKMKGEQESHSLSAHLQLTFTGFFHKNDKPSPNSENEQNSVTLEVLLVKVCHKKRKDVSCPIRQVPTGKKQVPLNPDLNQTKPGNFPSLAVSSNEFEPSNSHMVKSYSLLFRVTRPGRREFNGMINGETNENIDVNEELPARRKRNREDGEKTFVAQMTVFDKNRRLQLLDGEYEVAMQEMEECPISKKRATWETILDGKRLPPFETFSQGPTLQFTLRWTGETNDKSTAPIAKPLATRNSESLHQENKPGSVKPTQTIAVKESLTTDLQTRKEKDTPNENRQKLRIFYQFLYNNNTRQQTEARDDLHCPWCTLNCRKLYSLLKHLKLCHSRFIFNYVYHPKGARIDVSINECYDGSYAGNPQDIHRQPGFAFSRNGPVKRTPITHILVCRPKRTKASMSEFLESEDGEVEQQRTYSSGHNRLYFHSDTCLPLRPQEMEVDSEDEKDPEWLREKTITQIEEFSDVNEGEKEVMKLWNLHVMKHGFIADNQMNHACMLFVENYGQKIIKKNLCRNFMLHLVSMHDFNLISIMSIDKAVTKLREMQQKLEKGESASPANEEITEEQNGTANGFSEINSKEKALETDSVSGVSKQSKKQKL
EZH2, sequence (Q09028 whole entry partner): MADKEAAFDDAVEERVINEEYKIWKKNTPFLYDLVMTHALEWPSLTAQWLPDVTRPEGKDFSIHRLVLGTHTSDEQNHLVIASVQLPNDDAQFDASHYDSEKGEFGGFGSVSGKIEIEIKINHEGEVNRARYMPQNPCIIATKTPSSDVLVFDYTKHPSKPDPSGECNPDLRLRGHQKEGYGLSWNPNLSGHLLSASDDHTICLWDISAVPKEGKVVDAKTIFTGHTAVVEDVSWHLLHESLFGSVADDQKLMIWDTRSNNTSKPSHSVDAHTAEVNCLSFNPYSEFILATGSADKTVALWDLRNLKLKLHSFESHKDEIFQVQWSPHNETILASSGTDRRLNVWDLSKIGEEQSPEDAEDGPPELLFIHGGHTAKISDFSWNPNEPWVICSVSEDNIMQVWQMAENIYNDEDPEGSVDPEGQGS
EZH2, sequence (Q6ZN18 whole entry partner): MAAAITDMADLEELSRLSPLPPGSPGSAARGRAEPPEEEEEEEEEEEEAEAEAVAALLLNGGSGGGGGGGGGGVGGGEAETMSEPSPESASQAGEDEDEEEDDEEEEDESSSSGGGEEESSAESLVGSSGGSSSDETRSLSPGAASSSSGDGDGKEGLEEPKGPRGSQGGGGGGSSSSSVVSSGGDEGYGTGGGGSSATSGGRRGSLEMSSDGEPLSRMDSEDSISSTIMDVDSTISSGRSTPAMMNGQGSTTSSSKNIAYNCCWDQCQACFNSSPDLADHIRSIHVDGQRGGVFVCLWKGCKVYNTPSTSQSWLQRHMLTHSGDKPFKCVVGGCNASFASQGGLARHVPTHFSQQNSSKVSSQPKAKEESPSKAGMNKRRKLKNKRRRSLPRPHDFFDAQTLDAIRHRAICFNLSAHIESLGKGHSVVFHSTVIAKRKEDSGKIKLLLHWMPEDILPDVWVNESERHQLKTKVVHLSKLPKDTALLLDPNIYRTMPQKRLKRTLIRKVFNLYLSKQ

Compound: Cc1c(C(=O)NC(CCC2CC2)C(=O)Nc2ccc(C#N)cc2)[nH]c2c1C(=O)CC(C)(C)C2 (centres unmarked) [RK-701]
- IC50 (NSD3; NSD3, 1 μM SAM): > 100 µM
- IC50 (NSD3; NSD3, RK-701 in duplicate): > 100 µM
- IC50 (EZH2): > 100 µM
- IC50 (PRMT6): > 100 µM
- Solubility in PBS (pH = 6.8) (Aqueous solubility; PBS pH = 6.8, replicate values): 31.5 and 23.5 and 26.4
- Solubility in PBS (pH = 7.4) (Aqueous solubility; PBS pH = 7.4, replicate values): 10.4542 and 12.4313 and 11.5534 and 10.9261 and 15.3115 and 10.1928 and 7.42 and 8.729
- solubility at 1 h (Aqueous solubility; pH 6.8, PBS pH = 6.8, replicate values, read-out: Solubility in PBS (pH = 6.8)): 23.9 µM (≈ 10.7 µg/mL)
- solubility at 1 h (Aqueous solubility; pH 6.8, pH6.8, read-out: Solubility in PBS): 26.3 ± 3.2 µM (≈ 11.7 µg/mL)
- solubility at 1 h (Aqueous solubility; pH 7.4, pH7.4, read-out: Solubility in PBS): 10.9 ± 2.2 µM (≈ 4.87 µg/mL)
- IC50 (PRMT8): > 100 µM
- IC50 (NSD2 (E1099K)): > 100 µM
- cell permeability (PAMPA and Caco-2) [1]: decent cell permeability
- Papp ([1]; PAMPA): 3.08 ± 1.47 ×10⁻⁶ cm/s
- PAMPA ([1]; replicate values): 2.736e-6 and 5.393e-6 and 2.8861e-6 and 1.3122e-6
- Metabolic stability, % remaining of RK-701 ([2]; Time 5, replicate values): 67.6%
- Metabolic stability, % remaining of RK-701 ([2]; Time 10, replicate values): 70.7% and 62.6%
- Metabolic stability, % remaining of RK-701 ([2]; Time 20, replicate values): 60.6% and 44.6%
- Metabolic stability, % remaining of RK-701 ([2]; Time 30, replicate values): 51.3% and 40.3%
- Metabolic stability, % remaining of RK-701 ([2]; Time 45, replicate values): 47% and 30%
- Metabolic stability, % remaining of RK-701 ([2]; Time 60, replicate values): 37.6% and 29.4%
- remaining at 5 min, 1 µM ([2]; dog, liver microsomes, Metabolic stability, % remaining of RK-701, Dog, Time 5, replicate values): 72.6%
- remaining at 10 min, 1 µM ([2]; dog, liver microsomes, Metabolic stability, % remaining of RK-701, Dog, Time 10, replicate values): 57%
- remaining at 20 min, 1 µM ([2]; dog, liver microsomes, Metabolic stability, % remaining of RK-701, Dog, Time 20, replicate values): 53.4%
- remaining at 30 min, 1 µM ([2]; dog, liver microsomes, Metabolic stability, % remaining of RK-701, Dog, Time 30, replicate values): 48.4%
- remaining at 45 min, 1 µM ([2]; dog, liver microsomes, Metabolic stability, % remaining of RK-701, Dog, Time 45, replicate values): 37.1%
- remaining at 60 min, 1 µM ([2]; dog, liver microsomes, Metabolic stability, % remaining of RK-701, Dog, Time 60, replicate values): 30.9%
- microsomal CLint at 1 μM ([2]; dog, liver microsomes, Dug, read-out: Metabolic stability in liver microsomes CLint): 28 µL/min/mg
- Metabolic stability, % remaining of RK-701 ([3]; Time 5, replicate values): 89% and 81.8%
- Metabolic stability, % remaining of RK-701 ([3]; Time 10, replicate values): 86.2% and 80.2%
- Metabolic stability, % remaining of RK-701 ([3]; Time 20, replicate values): 63% and 58.9%
- Metabolic stability, % remaining of RK-701 ([3]; Time 30, replicate values): 53.3% and 55.8%
- Metabolic stability, % remaining of RK-701 ([3]; Time 60, replicate values): 36.1% and 33.5%
- remaining at 5 min, 1 µM ([3]; rat, liver microsomes, Metabolic stability, % remaining of RK-701, Rat, Time 5, replicate values): 89.1%
- remaining at 10 min, 1 µM ([3]; rat, liver microsomes, Metabolic stability, % remaining of RK-701, Rat, Time 10, replicate values): 83.1%
- remaining at 20 min, 1 µM ([3]; rat, liver microsomes, Metabolic stability, % remaining of RK-701, Rat, Time 20, replicate values): 61.7%
- remaining at 60 min, 1 µM ([3]; rat, liver microsomes, Metabolic stability, % remaining of RK-701, Rat, Time 60, replicate values): 35.6%
- microsomal CLint at 1 μM ([3]; rat, liver microsomes, read-out: Metabolic stability in liver microsomes CLint): 33 µL/min/mg
- IC50 (NSD2): > 100 µM

Reference: paper PMC9837035 (Nature Communications, 2023)
